Experiment [1] concerns the target T1, PI3K δ (Homo sapiens, UniProt O00329).
T1 construct: purchased Upstate
Briefly: PI3K δ in vitro kinase inhibition assay. Format: biochemical.
Description: (§1) IC50 values are measured using either a standard TLC assay for lipid kinase activity (described below) or a high-throughput membrane capture assay. Kinase reactions are performed by preparing a reaction mixture containing kinase, inhibitor (2% DMSO final concentration), buffer (25 mM HEPES, pH 7.4, 10 mM MgCl2), and freshly sonicated phosphatidylinositol (100 μg/ml). Reactions are initiated by the addition of ATP containing 10 μCi of γ-32P-ATP to a final concentration 10 or 100 μM and allowed to proceed for 5 minutes at room temperature. For TLC analysis, reactions are then terminated by the addition of 105 μl 1N HCl followed by 160 μl CHCl3:MeOH (1:1). The biphasic mixture is vortexed, briefly centrifuged, and the organic phase is transferred to a new tube using a gel loading pipette tip precoated with CHCl3. This extract is spotted on TLC plates and developed for 3-4 hours in a 65:35 solution of n-propanol:1M acetic acid. The TLC plates are then dried, exposed to a phosphorimager screen (Storm, Amersham), and quantitated.
(§2) Briefly, the assay is a time resolved FRET assay that indirectly measures PIP3 product formed by the activity of a PI3-K. The kinase reaction is performed in a microtiter plate (e.g., a 384 well microtiter plate). The total reaction volume is approximately 20 ul per well. In the first step, each well receives 2 ul of test compound in 20% dimethylsulphoxide resulting in a 2% DMSO final concentration. Next, approximately 14.5 ul of a kinase/PIP2 mixture (diluted in 1× reaction buffer) is added per well for a final concentration of 0.25-0.3 ug/ml kinase and 10 uM PIP2. […] To start the reaction, 3.5 ul of ATP (diluted in 1× reaction buffer) is added per well for a final concentration of 10 uM ATP. The plate is sealed and incubated for 1 hour at room temperature. The reaction is stopped by adding 5 ul of Stop Solution per well and then 5 μl of Detection Mix is added per well. The plate is sealed, incubated for 1 hour at room temperature, and then read on an appropriate plate reader. Data is analyzed and IC50s are generated using GraphPad Prism 5.

In experiment [2] the target is T2, PI3K γ (Homo sapiens, UniProt P48736).
T2 construct: purchased Sigma
Description: PI3K γ in vitro kinase inhibition assay. It counts as biochemical.
Description: as §1, §2

Experiment [3] relates to Balb/c splenic B cells. Briefly: B cell activation and proliferation assay (Alamar Blue). The note with it: Mus musculus, read-out: B cell proliferation EC50. It counts as cell-based.
Experiment [4] addresses T3, PI3K α (Homo sapiens, UniProt P42336).
T3 construct: purchased Upstate
Briefly: PI3K α in vitro kinase inhibition assay. Format: biochemical.
Description: as §1, §2

The target in experiment [5] is T4, PI3K β (Homo sapiens, UniProt P42338).
T4 construct: purchased Upstate
T4 sequence (P42338 whole entry): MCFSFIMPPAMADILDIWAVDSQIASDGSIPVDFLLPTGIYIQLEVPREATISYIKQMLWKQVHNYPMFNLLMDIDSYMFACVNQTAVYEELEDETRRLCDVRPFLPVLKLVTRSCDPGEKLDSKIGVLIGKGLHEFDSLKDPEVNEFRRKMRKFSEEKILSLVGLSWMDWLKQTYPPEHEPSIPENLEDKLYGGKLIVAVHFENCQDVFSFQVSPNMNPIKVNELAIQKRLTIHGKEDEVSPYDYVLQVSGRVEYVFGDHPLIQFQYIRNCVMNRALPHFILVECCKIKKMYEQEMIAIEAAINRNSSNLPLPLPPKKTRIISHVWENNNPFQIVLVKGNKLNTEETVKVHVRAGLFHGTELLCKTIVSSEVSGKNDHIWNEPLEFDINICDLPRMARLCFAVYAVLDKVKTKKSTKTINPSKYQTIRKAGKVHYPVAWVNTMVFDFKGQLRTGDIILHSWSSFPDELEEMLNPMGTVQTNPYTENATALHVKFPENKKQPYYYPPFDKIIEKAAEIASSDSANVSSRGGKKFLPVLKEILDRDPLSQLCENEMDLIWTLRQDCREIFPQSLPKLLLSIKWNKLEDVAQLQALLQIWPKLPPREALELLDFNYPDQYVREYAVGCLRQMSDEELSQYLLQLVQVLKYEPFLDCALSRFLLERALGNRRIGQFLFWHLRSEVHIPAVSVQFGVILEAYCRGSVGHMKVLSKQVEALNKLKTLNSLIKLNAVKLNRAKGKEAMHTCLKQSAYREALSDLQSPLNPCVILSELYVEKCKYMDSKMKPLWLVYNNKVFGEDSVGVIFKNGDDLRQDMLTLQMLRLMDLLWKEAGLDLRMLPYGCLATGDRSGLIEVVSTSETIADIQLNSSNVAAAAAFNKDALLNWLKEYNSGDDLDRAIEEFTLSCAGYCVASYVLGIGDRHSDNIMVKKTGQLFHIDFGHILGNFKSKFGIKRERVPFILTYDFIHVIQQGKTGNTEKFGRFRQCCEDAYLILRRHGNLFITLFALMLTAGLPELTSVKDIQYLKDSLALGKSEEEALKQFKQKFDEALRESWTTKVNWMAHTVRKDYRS
T4 sequence (P27986 whole entry partner): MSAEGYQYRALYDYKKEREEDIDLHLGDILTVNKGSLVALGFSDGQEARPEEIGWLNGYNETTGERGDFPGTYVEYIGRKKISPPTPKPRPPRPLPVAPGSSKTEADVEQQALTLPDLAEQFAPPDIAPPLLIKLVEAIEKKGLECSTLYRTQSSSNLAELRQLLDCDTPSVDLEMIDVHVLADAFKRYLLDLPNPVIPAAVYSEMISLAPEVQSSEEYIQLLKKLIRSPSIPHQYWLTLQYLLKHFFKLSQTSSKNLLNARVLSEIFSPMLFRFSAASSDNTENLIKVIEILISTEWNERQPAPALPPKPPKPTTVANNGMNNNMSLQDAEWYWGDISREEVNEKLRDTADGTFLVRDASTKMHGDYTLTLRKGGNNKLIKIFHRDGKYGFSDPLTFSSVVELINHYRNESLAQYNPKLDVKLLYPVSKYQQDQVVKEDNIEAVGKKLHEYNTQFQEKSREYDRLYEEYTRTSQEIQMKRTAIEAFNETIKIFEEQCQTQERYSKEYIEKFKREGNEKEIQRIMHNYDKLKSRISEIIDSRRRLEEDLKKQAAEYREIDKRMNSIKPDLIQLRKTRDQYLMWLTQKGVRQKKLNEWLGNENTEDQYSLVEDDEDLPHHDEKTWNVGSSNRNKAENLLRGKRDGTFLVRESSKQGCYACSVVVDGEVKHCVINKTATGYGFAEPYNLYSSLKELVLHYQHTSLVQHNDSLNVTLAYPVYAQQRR
Description: PI3K β in vitro kinase inhibition assay. It counts as biochemical.
Description: as §1, §2

Structures are written as SMILES. Some results are limits rather than exact numbers.

T1 sequence (O00329 whole entry): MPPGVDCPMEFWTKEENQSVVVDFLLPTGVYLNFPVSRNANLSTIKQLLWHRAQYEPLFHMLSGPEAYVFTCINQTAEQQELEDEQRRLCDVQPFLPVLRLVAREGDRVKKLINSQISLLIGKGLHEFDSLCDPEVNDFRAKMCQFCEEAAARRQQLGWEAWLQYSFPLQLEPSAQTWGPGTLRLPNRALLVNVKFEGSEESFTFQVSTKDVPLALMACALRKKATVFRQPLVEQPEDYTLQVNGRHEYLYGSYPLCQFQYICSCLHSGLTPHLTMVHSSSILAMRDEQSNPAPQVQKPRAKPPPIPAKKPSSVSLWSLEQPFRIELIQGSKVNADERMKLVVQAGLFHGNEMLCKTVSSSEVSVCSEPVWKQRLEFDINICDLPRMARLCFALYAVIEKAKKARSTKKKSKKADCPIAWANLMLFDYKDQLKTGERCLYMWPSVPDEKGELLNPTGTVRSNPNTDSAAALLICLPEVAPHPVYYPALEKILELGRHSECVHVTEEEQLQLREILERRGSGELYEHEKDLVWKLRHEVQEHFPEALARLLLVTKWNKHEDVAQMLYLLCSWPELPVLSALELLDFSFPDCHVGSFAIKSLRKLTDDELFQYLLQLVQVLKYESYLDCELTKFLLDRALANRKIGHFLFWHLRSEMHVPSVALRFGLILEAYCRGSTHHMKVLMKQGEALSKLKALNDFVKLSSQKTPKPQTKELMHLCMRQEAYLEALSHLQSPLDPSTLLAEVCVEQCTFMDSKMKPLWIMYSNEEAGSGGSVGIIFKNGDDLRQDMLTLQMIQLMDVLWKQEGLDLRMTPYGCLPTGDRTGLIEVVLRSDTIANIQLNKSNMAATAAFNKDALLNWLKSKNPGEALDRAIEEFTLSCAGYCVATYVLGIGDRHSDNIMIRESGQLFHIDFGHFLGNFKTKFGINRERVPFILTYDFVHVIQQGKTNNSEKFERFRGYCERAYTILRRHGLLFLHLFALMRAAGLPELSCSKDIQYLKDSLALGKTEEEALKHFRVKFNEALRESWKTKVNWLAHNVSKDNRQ
T1 sequence (P27986 whole entry partner): as the sequence (P27986 whole entry partner) above
T2 sequence (P48736 whole entry): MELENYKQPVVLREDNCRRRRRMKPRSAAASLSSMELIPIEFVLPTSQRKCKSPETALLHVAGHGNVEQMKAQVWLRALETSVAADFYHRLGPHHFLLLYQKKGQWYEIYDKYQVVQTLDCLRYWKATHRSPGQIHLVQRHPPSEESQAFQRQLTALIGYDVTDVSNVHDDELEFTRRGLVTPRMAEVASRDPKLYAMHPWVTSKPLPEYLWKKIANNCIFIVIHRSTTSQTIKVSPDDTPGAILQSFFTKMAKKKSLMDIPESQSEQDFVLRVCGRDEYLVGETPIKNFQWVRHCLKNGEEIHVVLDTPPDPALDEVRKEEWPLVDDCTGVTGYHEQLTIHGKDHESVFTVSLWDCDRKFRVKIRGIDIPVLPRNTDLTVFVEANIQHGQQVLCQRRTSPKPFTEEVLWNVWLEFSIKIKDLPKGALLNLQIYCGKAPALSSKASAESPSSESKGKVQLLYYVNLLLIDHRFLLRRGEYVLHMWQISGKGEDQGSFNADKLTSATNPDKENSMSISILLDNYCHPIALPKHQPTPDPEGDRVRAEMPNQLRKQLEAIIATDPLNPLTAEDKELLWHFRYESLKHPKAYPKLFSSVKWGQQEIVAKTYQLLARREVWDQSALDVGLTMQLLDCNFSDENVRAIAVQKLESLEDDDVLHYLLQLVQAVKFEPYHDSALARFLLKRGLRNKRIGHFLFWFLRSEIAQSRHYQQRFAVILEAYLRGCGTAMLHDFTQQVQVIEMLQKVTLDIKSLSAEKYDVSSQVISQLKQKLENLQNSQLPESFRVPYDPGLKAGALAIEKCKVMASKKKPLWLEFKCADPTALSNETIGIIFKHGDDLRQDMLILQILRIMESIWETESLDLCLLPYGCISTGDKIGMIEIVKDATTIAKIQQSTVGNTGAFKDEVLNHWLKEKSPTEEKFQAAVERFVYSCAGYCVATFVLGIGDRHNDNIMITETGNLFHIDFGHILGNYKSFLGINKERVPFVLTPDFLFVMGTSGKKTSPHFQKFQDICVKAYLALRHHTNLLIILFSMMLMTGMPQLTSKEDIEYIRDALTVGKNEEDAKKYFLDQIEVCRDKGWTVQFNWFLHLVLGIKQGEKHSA
T3 sequence (P42336 whole entry): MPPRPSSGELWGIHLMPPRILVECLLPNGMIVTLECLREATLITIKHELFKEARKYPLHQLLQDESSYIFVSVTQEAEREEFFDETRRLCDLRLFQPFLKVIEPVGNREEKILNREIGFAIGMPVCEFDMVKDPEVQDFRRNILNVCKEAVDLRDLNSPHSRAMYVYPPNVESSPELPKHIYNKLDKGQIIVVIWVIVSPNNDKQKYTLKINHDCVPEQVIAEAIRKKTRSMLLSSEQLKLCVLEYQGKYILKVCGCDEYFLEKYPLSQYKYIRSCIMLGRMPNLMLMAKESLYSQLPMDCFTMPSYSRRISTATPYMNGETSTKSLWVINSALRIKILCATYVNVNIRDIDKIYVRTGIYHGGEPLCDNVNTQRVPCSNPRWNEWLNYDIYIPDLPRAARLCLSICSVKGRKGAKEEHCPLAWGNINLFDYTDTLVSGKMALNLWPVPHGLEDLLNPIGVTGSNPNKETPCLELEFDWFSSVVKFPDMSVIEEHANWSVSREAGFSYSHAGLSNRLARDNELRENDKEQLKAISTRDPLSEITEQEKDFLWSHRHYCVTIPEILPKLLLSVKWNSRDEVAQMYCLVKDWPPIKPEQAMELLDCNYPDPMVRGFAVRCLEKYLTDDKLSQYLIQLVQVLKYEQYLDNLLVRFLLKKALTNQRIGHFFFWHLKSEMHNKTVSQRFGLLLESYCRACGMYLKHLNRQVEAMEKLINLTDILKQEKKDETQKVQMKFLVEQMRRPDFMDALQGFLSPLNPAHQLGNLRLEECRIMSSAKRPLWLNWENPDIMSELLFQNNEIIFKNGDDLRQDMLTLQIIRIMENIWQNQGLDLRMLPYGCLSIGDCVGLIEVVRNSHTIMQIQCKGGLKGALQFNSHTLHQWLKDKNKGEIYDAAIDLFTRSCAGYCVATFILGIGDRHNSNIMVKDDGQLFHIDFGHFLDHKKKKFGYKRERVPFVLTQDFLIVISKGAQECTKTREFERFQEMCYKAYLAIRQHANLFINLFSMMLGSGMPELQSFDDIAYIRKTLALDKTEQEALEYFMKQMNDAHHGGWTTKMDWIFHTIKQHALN
T3 sequence (P27986 whole entry partner): as the sequence (P27986 whole entry partner) above

As for `Cc1cccnc1-n1c(Cn2nc(I)c3c(N)ncnc32)cc2cccc(C)c2c1=O` [Compound 92], the IC50 in experiment [1] and in experiment [2] was below 10 µM each time.
On to `Cc1ccccc1-n1c(Cn2nc(C#N)c3c(N)ncnc32)cc2cccc(C)c2c1=O` [Compound 170], for which the EC50 in experiment [3] is below 0.1 µM.
With `Cc1cccc2cc(Cn3nc(/C=C4/SC(=O)NC4=O)c4c(N)ncnc43)n(-c3ccccc3F)c(=O)c12` [Compound 171], the EC50 in experiment [3] is below 0.1 µM.
The same measure, in the same setting: the value for `Cc1ccccc1-n1c(Cn2nc(/C=C3/SC(=O)NC3=O)c3c(N)ncnc32)cc2cccc(C)c2c1=O` [Compound 173] was below 0.1 µM.
Same read-out and setting: in the case of `Cc1ccccc1-n1c(Cn2nc(/C=C/C(N)=O)c3c(N)ncnc32)cc2cccc(C)c2c1=O` [Compound 174] it was below 0.1 µM; in that of `CCn1c(Cn2nc(-c3ccc4nc(NC(C)=O)sc4c3)c3c(N)ncnc32)cc2cccc(C)c2c1=O` [Compound 176], below 0.1 µM; in that of `CC(=O)Nc1nc2ccc(-c3nn(Cc4cc5cccc(C)c5c(=O)n4-c4ccccc4)c4ncnc(N)c34)cc2s1` [Compound 177], below 0.1 µM.
On the same count and under the same terms, the value for `CC(=O)Nc1nc2ccc(-c3nn(Cc4cc5cccc(C)c5c(=O)n4-c4cccc(F)c4)c4ncnc(N)c34)cc2s1` [Compound 178] was below 0.1 µM; that for `C=Cc1nn(Cc2cc3cccc(C)c3c(=O)n2-c2ccccc2C)c2ncnc(N)c12` [Compound 180] was below 0.1 µM.
On to `Cc1ccccc1-n1c(Cn2nc(I)c3c(N)ncnc32)nc2nccc(C)c2c1=O` [Compound 199], for which the IC50 – broadly, the concentration that inhibits the measured activity by half – in experiment [1] was below 1 µM; in experiment [2] it was below 10 µM; in experiment [4], above 10 µM; in experiment [5] it was above 10 µM. Further, in experiment [3], the EC50 was below 0.1 µM.
Turning to `Cc1ccccc1-n1c(Cn2nc(-c3cc(O)cc(F)c3)c3c(N)ncnc32)nc2nccc(C)c2c1=O` [Compound 200], the IC50 in experiment [1] was below 1 µM; in experiment [2], above 10 µM; in experiment [4] it was above 10 µM; in experiment [5], above 10 µM. The EC50 in experiment [3] was below 10 µM.
As for `Cc1ccccc1-n1c(Cn2nc(C#CC3CC3)c3c(N)ncnc32)nc2nccc(C)c2c1=O` [Compound 202], the half-maximal inhibitory concentration (IC50) in experiment [1] is below 1 µM; in experiment [2], above 10 µM; in experiment [4], above 10 µM; in experiment [5], above 10 µM. Also, the EC50 in experiment [3] was below 10 µM.
Turning to `Cc1ccccc1-n1c(Cn2nc(Cl)c3c(N)ncnc32)nc2nccc(C)c2c1=O` [Compound 203], the concentration for half-maximal inhibition (IC50) in experiment [1] was below 0.1 µM; in experiment [2] it was below 10 µM; in experiment [4] it was above 10 µM; in experiment [5], above 10 µM. Moreover, the EC50 in experiment [3] is below 1 µM.
Regarding `Cc1ccccc1-n1c(Cn2nc(Br)c3c(N)ncnc32)nc2nccc(C)c2c1=O` [Compound 204], the IC50 in experiment [1] was below 0.1 µM; in experiment [2] it was above 10 µM; in experiment [4] it was above 10 µM; in experiment [5], above 10 µM. The EC50 in experiment [3] was below 1 µM.
With `Cc1ccnc2nc(Cn3nc(C#CC4CC4)c4c(N)ncnc43)n(-c3ccccc3Cl)c(=O)c12` [Compound 208], the IC50 in experiment [1] is below 10 µM; in experiment [2] it was above 10 µM; in experiment [4], above 10 µM; in experiment [5] it was above 10 µM. Moreover, the EC50 in experiment [3] is below 10 µM.
Turning to `Cc1nn(Cc2nc3nccc(C)c3c(=O)n2-c2ccccc2F)c2ncnc(N)c12` [Compound 210], the IC50 in experiment [1] is below 10 µM; in experiment [2], above 10 µM; in experiment [4] it was above 10 µM; in experiment [5], above 10 µM. The EC50 in experiment [3] was below 10 µM.
`Cc1ccccc1-n1c(Cn2nc(-c3cccc(O)c3)c3c(N)ncnc32)nc2c(C)nn(C)c2c1=O` [Compound 217]: the IC50 in experiment [1] was below 10 µM; in experiment [2], above 10 µM; in experiment [4] it was above 10 µM; in experiment [5], above 10 µM. Further, the EC50 in experiment [3] is below 10 µM.
Turning to `Cc1ccccc1N1C(=O)C2C(C=NN2C)N=C1Cn1nc(-c2cc(O)cc(F)c2)c2c(N)ncnc21` (centres unmarked) [Compound 221], the IC50 was below 0.1 µM in experiment [1], above 10 µM in experiment [2], above 10 µM in experiment [4] and above 10 µM in experiment [5]. Also, the EC50 in experiment [3] is below 1 µM.
For the molecule `Cc1ccccc1-n1c(Cn2nc(C#CC3CC3)c3c(N)ncnc32)cc2nccc(C)c2c1=O` [Compound 225], the IC50 was below 1 µM in experiment [1], above 10 µM in experiment [2], above 10 µM in experiment [4] and above 10 µM in experiment [5]. In addition, in experiment [3], the EC50 was below 1 µM.
Regarding `Cc1ccccc1-n1c(Cn2nc(-c3ccc(O)c(F)c3)c3c(N)ncnc32)cc2nccc(C)c2c1=O` [Compound 226], the IC50 in experiment [1] is below 0.1 µM; in experiment [2], below 1 µM; in experiment [4], above 10 µM; in experiment [5], above 10 µM. In addition, the EC50 in experiment [3] was below 1 µM.
Regarding `Cc1ccnc2cc(Cn3nc(-c4cc(O)cc(F)c4)c4c(N)ncnc43)n(-c3ccccc3F)c(=O)c12` [Compound 231], the IC50 in experiment [1] was below 0.1 µM; in experiment [2] it was below 1 µM; in experiment [4], above 10 µM; in experiment [5], above 10 µM. Further, the EC50 in experiment [3] was below 0.1 µM.
Regarding `Cc1ccccc1-n1c(Cn2nc(Br)c3c(N)ncnc32)nc2snc(C)c2c1=O` [Compound 239], the IC50 in experiment [1] was below 1 µM; in experiment [2] it was above 10 µM; in experiment [4], above 10 µM; in experiment [5] it was above 10 µM.
Regarding `Cc1ccccc1-n1c(Cn2nc(-c3cccc(O)c3)c3c(N)ncnc32)nc2snc(C)c2c1=O` [Compound 241], the IC50 was below 1 µM in experiment [1], below 10 µM in experiment [2], above 10 µM in experiment [4] and above 10 µM in experiment [5].
As to `Cc1ccccc1-n1c(Cn2nc(I)c3c(N)ncnc32)nc2scc(C)c2c1=O` [Compound 242], the half-maximal inhibitory concentration (IC50) in experiment [1] is below 0.1 µM; in experiment [2], below 1 µM; in experiment [4], above 10 µM; in experiment [5] it was above 10 µM. Further, in experiment [3], the EC50 was below 0.1 µM.
For the molecule `Cc1ccccc1-n1c(Cn2nc(C)c3c(N)ncnc32)nc2scc(C)c2c1=O` [Compound 246], the IC50 in experiment [1] was below 0.1 µM; in experiment [2], below 0.1 µM; in experiment [4], above 10 µM; in experiment [5] it was above 10 µM. Further, the EC50 in experiment [3] was below 1 µM.
As to `Cc1ccccc1-n1c(Cn2nc(Cl)c3c(N)ncnc32)nc2scc(C)c2c1=O` [Compound 249], the IC50 is below 0.1 µM in experiment [1], below 1 µM in experiment [2], above 10 µM in experiment [4] and above 10 µM in experiment [5]. Moreover, the EC50 in experiment [3] was below 0.1 µM.
With `Cc1ccccc1-n1c(Cn2nc(Br)c3c(N)ncnc32)nc2scc(C)c2c1=O` [Compound 250], the half-inhibitory concentration (IC50) is below 0.1 µM in experiment [1], below 1 µM in experiment [2], above 10 µM in experiment [4] and above 10 µM in experiment [5]. Also, the EC50 in experiment [3] was below 0.1 µM.
Consider `Cc1csc2nc(Cn3nc(-c4cc(O)cc(F)c4)c4c(N)ncnc43)n(-c3ccccc3F)c(=O)c12` [Compound 258], for which the IC50 was below 0.1 µM in experiment [1], below 0.1 µM in experiment [2], above 10 µM in experiment [4] and above 10 µM in experiment [5]. The EC50 in experiment [3] is below 0.1 µM.
As to `Cc1csc2nc(Cn3nc(-c4ccc(F)c(O)c4)c4c(N)ncnc43)n(-c3ccccc3F)c(=O)c12` [Compound 259], the IC50 in experiment [1] is below 0.1 µM; in experiment [2], below 1 µM; in experiment [4], above 10 µM; in experiment [5], above 10 µM. In addition, the EC50 in experiment [3] is below 0.1 µM.
Turning to `Cc1csc2nc(Cn3nc(C#C[C@@H](C)O)c4c(N)ncnc43)n(-c3ccccc3F)c(=O)c12` [Compound 261], the IC50 in experiment [1] is below 0.1 µM; in experiment [2], below 0.1 µM; in experiment [4] it was above 10 µM; in experiment [5], above 10 µM. Also, the EC50 in experiment [3] is below 1 µM.
Turning to `Cc1csc2nc(Cn3nc(-c4ccc(O)cc4)c4c(N)ncnc43)n(-c3ccccc3F)c(=O)c12` [Compound 263], the IC50 in experiment [1] is below 10 µM; in experiment [2], below 10 µM; in experiment [4], above 10 µM; in experiment [5], above 10 µM. In addition, the EC50 in experiment [3] was below 10 µM.
Turning to `Cc1ccccc1-n1c(Cn2nc(-c3ccc(O)c(Cl)c3)c3c(N)ncnc32)nc2scc(C)c2c1=O` [Compound 269], the IC50 in experiment [1] was below 0.1 µM; in experiment [2], below 0.1 µM; in experiment [4] it was above 10 µM; in experiment [5], below 10 µM.
In the case of `Cc1cccnc1-n1c(Cn2nc(Cl)c3c(N)ncnc32)nc2scc(C)c2c1=O` [Compound 270], the IC50 is below 1 µM in experiment [1], below 10 µM in experiment [2], above 10 µM in experiment [4] and above 10 µM in experiment [5].
Turning to `COc1ccccc1-n1c(Cn2nc(Br)c3c(N)ncnc32)nc2scc(C)c2c1=O` [Compound 274], the IC50 is below 0.1 µM in experiment [1], below 1 µM in experiment [2], above 10 µM in experiment [4] and above 10 µM in experiment [5].
In the case of `Cc1cc2c(=O)n(-c3ccccc3C)c(Cn3nc(Br)c4c(N)ncnc43)nc2s1` [Compound 285], the IC50 in experiment [1] is below 10 µM; in experiment [2], above 10 µM; in experiment [4] it was above 10 µM; in experiment [5], above 10 µM.
`Cc1cc2c(=O)n(-c3ccccc3C)c(Cn3nc(-c4cccc(O)c4)c4c(N)ncnc43)nc2s1` [Compound 294]: the half-maximal inhibitory concentration (IC50) in experiment [1] is below 10 µM; in experiment [2], above 10 µM; in experiment [4] it was above 10 µM; in experiment [5], above 10 µM.
With `Cc1ccccc1-n1c(Cn2nc(-c3cccc(O)c3)c3c(N)ncnc32)nc2sc(C)c(C)c2c1=O` [Compound 299], the IC50 in experiment [1] was below 1 µM; in experiment [2], above 10 µM; in experiment [4], above 10 µM; in experiment [5] it was above 10 µM.
As to `Cc1ccccc1-n1c(Cn2nc(Br)c3c(N)ncnc32)nc2sc(C)c(C)c2c1=O` [Compound 301], the IC50 is below 0.1 µM in experiment [1], above 10 µM in experiment [2], above 10 µM in experiment [4] and above 10 µM in experiment [5].
